Patent publication US12122774B2, “Compounds as MYT1 inhibitors” (WIGEN BIOMEDICINE TECHNOLOGY (SHANGHAI) CO., LTD., priority 2022, dated 2024)
Values after ≈ are worked out from the molar mass of the structure shown. Blank lines part the entries; values can stand above or below the molecule they belong to.

What was measured:
MIA PaCa-2 cells [1] = assay: In vitro anti-proliferative activity against MIA PaCa-2 cells (compound alone); format: cell-based; conditions: intracellular ATP content
Description: (§1) MIA PaCa-2 cells were seeded on a 384-well plate at 3000 cells/well. After overnight adherence culture, DMSO or the compounds serially diluted 1:5 from 10 µM were added. The viability was assessed 72 h after dosing by measuring the intracellular ATP content. The inhibition percentage of viable cells by the compounds was calculated by comparing with the DMSO group, and the IC50 value was calculated.

[2] = In vivo pharmacokinetic experiment; parameters: species or system CD-1 female mice; conditions: mice
Description: CD-1 female mice aged 7 to 10 weeks were intravenously administered and orally administered at a dose of 2 mg/kg and 10 mg/kg, respectively. The mice were fasted for at least 12 h before the administration and given food 4 h after the administration, and they were given ad libitum access to water during the experiment. On the day of the experiment, animals in the intravenous group were administered the corresponding compound by single injection via the tail vein at an administration volume of 10 mL/kg. Animals in the oral group were administered the corresponding compound by single intragastric injection at an administration volume of 10 mL/kg. The animals were weighed before administration, and the administration volume was calculated according to the body weight. The sample collection time was 0.083 h (injection group), 0.167 h, 0.5 h, 1 h, 2 h, 4 h, 8 h, and 24 h. About 200 μL of whole blood was collected through the submaxillary venous plexus at each time point and used to prepare plasma for concentration determination by high-performance liquid chromatography-tandem mass spectrometry (LC-MS/MS). All animals were euthanized with CO2 anesthesia after the PK samples were collected at the last time point. The plasma concentrations were processed using a non-compartmental model of Phoenix WinNonlin™ version 8.3 (Certara) pharmacokinetic software, and the pharmacokinetic parameters were calculated using a linear-log trapezoidal method.

in vitro = conditions: dog, MDCK
Description: (§2) In vitro passive permeability or the ability to serve as a P-glycoprotein (P-gp) transport substrate was tested using MDCK cells (MDCK wild type) or MDCK cells stably transduced with MDR1 (MDCK-MDR1), respectively. The permeability experiment was performed in duplicate in a transwell system at a single concentration (5 μM). The cells were incubated for 90 min. Apical-to-basolateral (A to B, A-B) transport and basolateral-to-apical (B to A, B-A) transport of the corresponding compound were determined, and the permeation rate (apparent permeability) (Papp×10^−6 cm/sec) and efflux ratio (Papp (B-A)/Papp (A-B)) of the test compound were calculated.

[3] = In vitro stability experiment (HPLC purity of filtrate); format: physicochemical
Description: (§3) Preparation of a standard curve: 10.01 mg of sample was weighed out and placed in a volumetric flask, and the volume was brought to 10 mL with acetonitrile/water (v/v, 9/1) to prepare 1.001 mg/mL of standard solution; the standard solution was then serially diluted to 0.5005 mg/mL, 0.1001 mg/mL, 0.05005 mg/mL, 0.01001 mg/mL, and 0.001001 mg/mL to generate the standard curve, and a linear equation was fitted by taking the peak area of the sample as a vertical axis and the concentration as a horizontal axis. Solubility and stability test: 15 mg of sample was added to 3 mL of vehicle (FaSSIF, FeSSIF, SGF, or water) to prepare a corresponding suspension at a target concentration of 5 mg/mL. The prepared suspension was stirred on a shaker (800 rpm) at 37° C. for 0.5 h, and the suspension was then filtered. The filtrate was diluted with a diluent to a corresponding multiple so that the peak height could not exceed the standard curve, and the solubility and purity were detected using HPLC.

[4] = In vitro solubility experiment; format: physicochemical; conditions: organic solvent or mixture, thermodynamic from solid
[5] = In vitro solubility experiment; format: physicochemical; conditions: for solubility at 0.5 h: thermodynamic from solid
Description: as §3

[6] = test system: P-glycoprotein (P-gp, MDR1); assay: in vitro; conditions: dog
Description: as §2

[7] = test system: MDCK cells stably transduced with MDR1 (MDCK-MDR1); assay: in vitro; conditions: MDCK-MDR1
Description: as §2

MIA PaCa-2 cells [8] = assay: In vitro anti-proliferative activity in combination with gemcitabine against MIA PaCa-2 cells; format: cell-based; conditions: for IC50: read-out: Anti-proliferative activity against MIA PaCa-2 cells (20 nM gemcitabine) IC50, with 20 nM gemcitabine, 72 h, intracellular ATP content
Description: as §1, with “cells/well, and 20 nM gemcitabine was added.” for “cells/well.”, “1000 nM” for “10 µM”

[9] = female, CD-1, mouse, plasma, iv, injection 2 mg/kg
[10] = female, CD-1, mouse, plasma, oral administration 10 mg/kg
[11] = FaSSIF, initial pH 6.52, 37° C.
[12] = FeSSIF, initial pH 4.98, 37° C.

- IC50 (MIA PaCa-2 cells [1]; 72 h): > 10 µM
Structure (SMILES): Cc1cc2c(C(N)=O)c(N)n(-c3c(C)c(O)cc4c3CCC4)c2nc1C (atropisomer, axis not shown) [Compound 117]

- IC50 (MIA PaCa-2 cells [1]; 72 h): > 10 µM
Structure (SMILES): Cc1cc2c(C(N)=O)c(N)n(-c3c(C)cc4c(c3C)NCC4)c2nc1C [Compound 151]

- IC50 (MIA PaCa-2 cells [1]; Homo sapiens, MIA PaCa-2, 72 h): > 10 µM
Structure (SMILES): Cc1cc2c(C(N)=O)c(N)n(-c3c(C)cc4cc[nH]c4c3C)c2nc1C [Compound 153]

Second part, the molecule before the results:

Structure (SMILES): Cc1cc2c(C(N)=O)c(N)n(-c3c(C)cc4c(c3C)NCC4)c2nc1C [Compound 150]
- IC50 (MIA PaCa-2 cells [1]; Homo sapiens, MIA PaCa-2, 72 h): > 10 µM

Structure (SMILES): Cc1cc2c(C(N)=O)c(N)n(-c3c(C)c(O)cc(F)c3C)c2nc1C (single isomer, unassigned) [Compound 2]
- AUC(0-t) [2, 9]: 338 ng·h/mL
- half-life [2, 9]: 3.32 h
- Vd ([2]; female, CD-1, mouse, plasma, iv, injection 2 mg/kg, read-out: Vdss): 6.76 L/kg
- AUC(0-t) [2, 10]: 638 ng·h/mL
- Cmax [2, 10]: 603 ng/mL
- half-life [2, 10]: 3.84 h
- Cl ([2]; injection 2 mg/kg): 94.4 mL/min/kg
- F % ([2]; oral administration 10 mg/kg): 44.5%
- Half-life T1/2 compared to RP-6306 ([2]; in words): longer half-life T1/2 compared to RP-6306
- Vdss compared to RP-6306 ([2]; in words): greater increase in Vdss compared to RP-6306
- efflux ratio at 90 min, 5 μM (in vitro): 1.56
- Papp A→B at 90 min, 5 µM (in vitro; Papp Mean): 27.1 ×10⁻⁶ cm/s
- Papp B→A at 90 min, 5 µM (in vitro; Papp Mean): 42.2 ×10⁻⁶ cm/s
- Papp A→B at 90 min, 5 µM (in vitro; Papp Sample - 01): 27.9 ×10⁻⁶ cm/s
- Papp B→A at 90 min, 5 µM (in vitro; Papp Sample - 01): 40 ×10⁻⁶ cm/s
- Papp A→B at 90 min, 5 µM (in vitro; Papp Sample - 02): 26.3 ×10⁻⁶ cm/s
- Papp B→A at 90 min, 5 µM (in vitro; Papp Sample - 02): 44.5 ×10⁻⁶ cm/s
- Stability compared to RP-6306 ([3]; FaSSIF, FeSSIF, and water, in words): more stable than RP-6306
- HPLC purity 0.5 h [3, 11]: 88.76 %, 220 nm
- HPLC purity 0.5 h [3, 12]: 95.98 %, 220 nm
- HPLC purity 0.5 h ([3]; SGF, initial pH 1.2, 37° C.): 98.69 %, 220 nm
- HPLC purity 0.5 h ([3]; Water, initial pH 7.7, 37° C.): 96.4 %, 220 nm
- IC50 (MIA PaCa-2 cells [1]; Homo sapiens, MIA PaCa-2, 72 h): 4.32 µM
- solubility at 0.5 h ([4]; methanol): 40600 µg/mL (≈ 118 mM)
- solubility at 0.5 h ([4]; tetrahydrofuran): 6110 µg/mL (≈ 17.9 mM)
- Solubility compared to RP-6306 ([5]; FaSSIF, FeSSIF, SGF, water, methanol, and tetrahydrofuran, in words): higher solubility in various vehicles
- solubility at 0.5 h ([5]; simulated gastric fluid, SGF, initial pH 1.2, 37° C.): 4860 µg/mL (≈ 14.2 mM)
- solubility at 0.5 h [5, 11]: 61 µg/mL (≈ 0.178 mM)
- solubility at 0.5 h [5, 12]: 327 µg/mL (≈ 0.955 mM)
- solubility at 0.5 h ([5]; Water, initial pH 7.7, 37° C.): 270 µg/mL (≈ 0.789 mM)
- efflux ratio at 90 min, 5 μM ([6]; MDCK-MDR1): 1.71
- Papp A→B at 90 min, 5 µM ([6]; MDCK-MDR1, Papp Mean): 20.5 ×10⁻⁶ cm/s
- Papp B→A at 90 min, 5 µM ([6]; MDCK-MDR1, Papp Mean): 35 ×10⁻⁶ cm/s
- Papp A→B at 90 min, 5 µM ([6]; MDCK-MDR1, Papp Sample - 01): 21.1 ×10⁻⁶ cm/s
- Papp B→A at 90 min, 5 µM ([6]; MDCK-MDR1, Papp Sample - 01): 35.3 ×10⁻⁶ cm/s
- Papp A→B at 90 min, 5 µM ([6]; MDCK-MDR1, Papp Sample - 02): 19.9 ×10⁻⁶ cm/s
- Papp B→A at 90 min, 5 µM ([6]; MDCK-MDR1, Papp Sample - 02): 34.8 ×10⁻⁶ cm/s
- Permeability compared to RP-6306 [7]: superior permeability to that of RP-6306
- Anti-proliferative activity against MIA PaCa-2 cells in combination with gemcitabine (MIA PaCa-2 cells [8]; in words): stronger anti-proliferative activity than that of RP-6306
- IC50 (MIA PaCa-2 cells [8]): 0.018 µM

Structure (SMILES): Cc1cc2c(C(N)=O)c(N)n(-c3c(C)c(O)cc(F)c3C)c2nc1C [Compound 3]
- IC50 (MIA PaCa-2 cells [1]; Homo sapiens, MIA PaCa-2, 72 h): > 10 µM
- IC50 (MIA PaCa-2 cells [8]): ≥ 1.23 µM
